Assay results taken from patent publication US10399945B2, “Tetrahydronaphthyl urea derivative” (MOCHIDA PHARMACEUTICAL CO., LTD., priority 2017, dated 2019).

Target: Human TrkA Protein (Homo sapiens (Human), UniProt P04629)
Assay: Evaluation of Binding Activity for Human TrkA Protein (TrkA LanthaScreen Eu Kinase Binding Assay)
Conditions: TrkA enzyme, Kinase Tracer 236, TR-FRET, 60 minutes at room temperature
Method: (Pharmacological Experimental Example 1): Evaluation of Binding Activity for Human TrkA Protein
Measurement was carried out using TrkA LanthaScreen (registered trademark) Eu Kinase Binding Assay (ThermoFisher SCIENTIFIC). To a 384 well plate (Corning), 2.5 μL of the test compound having various concentrations and diluted with Kinase buffer (ThermoFisher SCIENTIFIC) and 2.5 μL of 15 nM TrkA enzyme (ThermoFisher SCIENTIFIC) were added. Moreover, […] Eu-anti-His Tag antibody (ThermoFisher SCIENTIFIC) and 5 μL of 30 nM Kinase (registered trademark) Tracer 236 (ThermoFisher SCIENTIFIC) were added, followed by reaction at room temperature for 60 minutes. After the reaction, the fluorescence intensity of Europium (Emission wavelength 615 nm) and TR-FRET (Emission wavelength 665 nm) with an excitation wavelength of 340 nm were measured with EnVision 2100 (PerkinElmer) to calculate the fluorescence ratio as the amount of the test compound and the TrkA enzyme bonded. The inhibitory activity (IC50 value) of each test compound was calculated with the fluorescence ratio of the well to which a solvent was added instead of the test compound being 0% and the fluorescence ratio of the well without addition of the TrkA protein being 100%.
In Table 1, […] mean Compounds 1 to 62 synthesized in accordance with Examples 1 to 62 described later.

Chain of Human TrkA Protein (P04629 33-796): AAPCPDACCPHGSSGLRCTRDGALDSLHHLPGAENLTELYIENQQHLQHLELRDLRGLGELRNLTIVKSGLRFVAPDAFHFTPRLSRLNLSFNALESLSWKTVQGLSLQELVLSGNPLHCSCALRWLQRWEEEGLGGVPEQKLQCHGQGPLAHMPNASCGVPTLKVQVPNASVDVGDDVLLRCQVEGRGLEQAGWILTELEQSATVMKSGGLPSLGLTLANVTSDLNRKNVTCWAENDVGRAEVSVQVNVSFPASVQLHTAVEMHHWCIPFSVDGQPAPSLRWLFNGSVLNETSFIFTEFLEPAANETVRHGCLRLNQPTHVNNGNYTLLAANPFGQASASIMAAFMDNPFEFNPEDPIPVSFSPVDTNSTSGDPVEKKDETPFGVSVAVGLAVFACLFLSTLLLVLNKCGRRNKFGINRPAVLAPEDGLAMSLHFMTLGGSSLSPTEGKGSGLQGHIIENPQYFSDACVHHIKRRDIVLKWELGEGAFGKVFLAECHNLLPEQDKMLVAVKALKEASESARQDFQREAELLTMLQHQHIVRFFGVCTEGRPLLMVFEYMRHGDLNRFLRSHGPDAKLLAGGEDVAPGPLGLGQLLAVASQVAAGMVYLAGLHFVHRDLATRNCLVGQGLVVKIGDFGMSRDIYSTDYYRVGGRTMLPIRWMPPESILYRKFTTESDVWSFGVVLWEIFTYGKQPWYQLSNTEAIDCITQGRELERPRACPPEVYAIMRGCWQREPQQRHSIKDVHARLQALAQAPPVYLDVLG

Compound	IC50 [nM]
Cc1cc(NC(=O)N[C@@H]2c3cc(F)c(F)cc3C(C)(C)C[C@H]2O)c(C2CCOCC2)nc1C(=O)NCC(C)(C)O (racemic) [Compound 60, rac-5-(3-((1R,2R)-6,7-difluoro-2-hydroxy-4,4-dimethyl-1,2,3,4-tetrahydronaphthalen-1-yl)ureido)-N-(2-hydroxy-2-methylpropyl)-3-methyl-6-(tetrahydro-2H-pyran-4-yl)picolinamide]	50 to 1000
Cc1cc(NC(=O)N[C@@H]2c3cc(F)c(F)cc3C(C)(C)C[C@H]2O)c(C2CCOCC2)nc1-c1cn[nH]c1 (racemic) [Compound 61, rac-1-((1R,2R)-6,7-difluoro-2-hydroxy-4,4-dimethyl-1,2,3,4-tetrahydronaphthalen-1-yl)-3-(5-methyl-6-(1H-pyrazol-4-yl)-2-(tetrahydro-2H-pyran-4-yl)pyridin-3-yl)urea]	50 to 1000
Cc1cc(NC(=O)N[C@@H]2c3cc(F)c(F)cc3C(C)(C)C[C@H]2O)c(C2CCOCC2)nc1-c1cn[nH]c1 (racemic) [Compound 61a]	50 to 1000
Cc1cc(NC(=O)N[C@@H]2c3cc(F)c(F)cc3C(C)(C)C[C@H]2O)c(C2CCOCC2)nc1-c1cnc(O)nc1 (racemic) [Compound 62, rac-1-((1R,2R)-6,7-difluoro-2-hydroxy-4,4-dimethyl-1,2,3,4-tetrahydronaphthalen-1-yl)-3-(6-(2-hydroxypyrimidin-5-yl)-5-methyl-2-(tetrahydro-2H-pyran-4-yl)pyridin-3-yl)urea]	50 to 1000
Cc1cnc(-c2ccccc2)c(NC(=O)N[C@@H]2c3ccccc3C(C)(C)C[C@H]2O)c1 [Compound 7, 1-((1R,2R)-2-hydroxy-4,4-dimethyl-1,2,3,4-tetrahydronaphthalen-1-yl)-3-(5-methyl-2-phenylpyridin-3-yl)urea]	≤ 50
Cc1cc(NC(=O)N[C@@H]2c3ccccc3C(C)(C)C[C@H]2O)c(-c2ccccc2)nc1CO [Compound 8, 1-((1R,2R)-2-hydroxy-4,4-dimethyl-1,2,3,4-tetrahydronaphthalen-1-yl)-3-(6-(hydroxymethyl)-5-methyl-2-phenylpyridin-3-yl)urea]	≤ 50
Cc1ncc(-c2nc(-c3ccccc3)c(NC(=O)N[C@@H]3c4ccccc4C(C)(C)C[C@H]3O)cc2C)cn1 [Compound 9, 1-((1R,2R)-2-hydroxy-4,4-dimethyl-1,2,3,4-tetrahydronaphthalen-1-yl)-3-(5-methyl-6-(2-methylpyrimidin-5-yl)-2-phenylpyridin-3-yl)urea]	≤ 50
Cc1cc(NC(=O)N[C@@H]2c3ccccc3C(C)(C)C[C@H]2O)c(-c2ccccc2)nc1-c1cnn(C)c1 [Compound 10, 1-((1R,2R)-2-hydroxy-4,4-dimethyl-1,2,3,4-tetrahydronaphthalen-1-yl)-3-(5-methyl-6-(1-methyl-1H-pyrazol-4-yl)-2-phenylpyridin-3-yl)urea]	≤ 50
Cc1cc(NC(=O)N[C@@H]2c3ccccc3C(C)(C)C[C@H]2O)c(-c2ccccc2)nc1-c1cncc(C(F)(F)F)c1 [Compound 11, 1-((1R,2R)-2-hydroxy-4,4-dimethyl-1,2,3,4-tetrahydronaphthalen-1-yl)-3-(3-methyl-6-phenyl-5′-(trifluoromethyl)-[2,3′-bipyridin]-5-yl)urea]	≤ 50
Cc1ccc(-c2nc(-c3ccccc3)c(NC(=O)N[C@@H]3c4ccccc4C(C)(C)C[C@H]3O)cc2C)cn1 [Compound 12, 1-(3,6′-dimethyl-6-phenyl-[2,3′-bipyridin]-5-yl)-3-((1R,2R)-2-hydroxy-4,4-dimethyl-1,2,3,4-tetrahydronaphthalen-1-yl)urea]	≤ 50
Cc1cc(NC(=O)N[C@@H]2c3ccccc3C(C)(C)C[C@H]2O)c(-c2ccccc2)nc1-c1ccc(C#N)nc1 [Compound 13, 1-(6′-cyano-3-methyl-6-phenyl-[2,3′-bipyridin]-5-yl)-3-((1R,2R)-2-hydroxy-4,4-dimethyl-1,2,3,4-tetrahydronaphthalen-1-yl)urea]	≤ 50
Cc1cc(NC(=O)N[C@@H]2c3ccccc3C(C)(C)C[C@H]2O)c(-c2ccccc2)nc1-c1ccc(S(C)(=O)=O)nc1 [Compound 14, 1-((1R,2R)-2-hydroxy-4,4-dimethyl-1,2,3,4-tetrahydronaphthalen-1-yl)-3-(3-methyl-6′-(methylsulfonyl)-6-phenyl-[2,3′-bipyridin]-5-yl)urea]	≤ 50
Cc1cc(NC(=O)N[C@@H]2c3ccccc3C(C)(C)C[C@H]2O)c(-c2ccccc2)nc1-c1cnc(C(F)(F)F)nc1 [Compound 15, 1-((1R,2R)-2-hydroxy-4,4-dimethyl-1,2,3,4-tetrahydronaphthalen-1-yl)-3-(5-methyl-2-phenyl-6-(2-(trifluoromethyl)pyrimidin-5-yl)pyridin-3-yl)urea]	≤ 50
Cc1cc(NC(=O)N[C@@H]2c3ccccc3C(C)(C)C[C@H]2O)c(-c2ccccc2)nc1-c1ccc(C#N)cc1 [Compound 16, 1-(6-(4-cyanophenyl)-5-methyl-2-phenylpyridin-3-yl)-3-((1R,2R)-2-hydroxy-4,4-dimethyl-1,2,3,4-tetrahydronaphthalen-1-yl)urea]	≤ 50
Cc1cc(NC(=O)N[C@@H]2c3ccccc3C(C)(C)C[C@H]2O)c(-c2ccccc2)nc1-c1ccnc(C(F)(F)F)c1 [Compound 17, 1-((1R,2R)-2-hydroxy-4,4-dimethyl-1,2,3,4-tetrahydronaphthalen-1-yl)-3-(3-methyl-6-phenyl-2′-(trifluoromethyl)-[2,4′-bipyridin]-5-yl)urea]	≤ 50
Cc1cc(NC(=O)N[C@@H]2c3ccccc3C(C)(C)C[C@H]2O)c(-c2ccccc2)nc1-c1cn[nH]c1 [Compound 18, 1-((1R,2R)-2-hydroxy-4,4-dimethyl-1,2,3,4-tetrahydronaphthalen-1-yl)-3-(5-methyl-2-phenyl-6-(1H-pyrazol-4-yl)pyridin-3-yl)urea]	≤ 50
Cc1cc(NC(=O)N[C@@H]2c3ccccc3C(C)(C)C[C@H]2O)c(-c2ccccc2)nc1-c1cnc(O)nc1 [Compound 19, 1-((1R,2R)-2-hydroxy-4,4-dimethyl-1,2,3,4-tetrahydronaphthalen-1-yl)-3-(6-(2-hydroxypyrimidin-5-yl)-5-methyl-2-phenylpyridin-3-yl)urea]	≤ 50
Cc1cc(NC(=O)N[C@@H]2c3ccccc3C(C)(C)C[C@H]2O)c(-c2ccccc2)nc1-c1ccc(O)nc1 [Compound 20, 1-(6′-hydroxy-3-methyl-6-phenyl-[2,3′-bipyridin]-5-yl)-3-((1R,2R)-2-hydroxy-4,4-dimethyl-1,2,3,4-tetrahydronaphthalen-1-yl)urea]	≤ 50
Cc1cc(NC(=O)N[C@@H]2c3ccccc3C(C)(C)C[C@H]2O)c(-c2ccccc2)nc1-c1cnc(C(C)(C)O)nc1 [Compound 21, 1-((1R,2R)-2-hydroxy-4,4-dimethyl-1,2,3,4-tetrahydronaphthalen-1-yl)-3-(6-(2-(2-hydroxypropan-2-yl)pyrimidin-5-yl)-5-methyl-2-phenylpyridin-3-yl)urea]	≤ 50
rac-1-((1R,2R)-6,7-difluoro-2-hydroxy-4,4-dimethyl-1,2,3,4-tetrahydronaphthalen-1-yl)-3-(2-(hydroxymethyl)-3-methyl-6-phenyl-[2,4′-bipyridin]-5-yl)urea [Compound 56]	≤ 50
